Measurements taken from PubChem BioAssay AID2060600 (Molecular Pharmacology Branch, DTP, NCI, 2025).
Several values for one entry are separate records, joined by “and”; a condition that tells them apart may be missing. Equal values may be shown once.

System: 996289-038-R-J1-PDC complex spheroid viability
Assay: Anticancer human tumor 996289-038-R-J1-PDC patient-derived colon adenocarcinoma cell line growth inhibition [CLK]
Conditions: for viability, T/C: stronger effect = lower value
Method in brief: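 Patient-derived tumor cells grown as complex spheroids with HUVEC endothelial cells and mesenchymal stem cells, treated with drug combinations. Concentrations descend in half-log steps from near clinical Cmax, or from 10 microM if Cmax unknown.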

[1] = curve of first compound, second compound 0.0316 µM
[2] = curve of first compound, second compound 0.1 µM
[3] = curve of first compound, second compound 0.316 µM
[4] = curve of first compound, second compound 1 µM
[5] = curve of first compound, second compound 3.16 µM
[6] = curve of first compound, second compound 10 µM
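Further: spheroids exposed to the agents for 7 days before readout.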

In the case of NC(=O)C(=Cn1cnc(-c2cc(C(F)(F)F)cc(C(F)(F)F)c2)n1)c1cncnc1 + CNC(=O)c1ccc(Nc2nc(OC3CCCC3)c3c(-c4ccc5nc(C)oc5c4)c[nH]c3n2)c(OC)c1, the IC50 [1] is reported as 101 nM, the IC50 [2] is reported as 77 nM and the IC50 [3] is reported as 40.5 nM. For the same compound, the IC50 [4] was 13 nM, the IC50 [5] was under 9.49 nM and the IC50 [6] was under 9.49 nM. The viability, T/C (second compound 0.0316 µM, first compound 0.00949 µM) was 98.9%, the viability, T/C (second compound 0.0316 µM, first compound 0.03 µM) was 79.4% and the viability, T/C (second compound 0.0316 µM, first compound 0.0949 µM) was 50.9%. It also gave a viability, T/C (second compound 0.0316 µM, first compound 0.3 µM) of 31.2%, a viability, T/C (second compound 0.0316 µM, first compound 0.949 µM) of 20% and a viability, T/C (second compound 0.0316 µM, first compound 3 µM) of 19.5%. It also gave a viability, T/C (second compound 0.1 µM, first compound 0.00949 µM) of 93.8%, a viability, T/C (second compound 0.1 µM, first compound 0.03 µM) of 71.5% and a viability, T/C (second compound 0.1 µM, first compound 0.0949 µM) of 45.8%. The viability, T/C (second compound 0.1 µM, first compound 0.3 µM) was 27.6%, the viability, T/C (second compound 0.1 µM, first compound 0.949 µM) was 17.7% and the viability, T/C (second compound 0.1 µM, first compound 3 µM) was 19%. It also gave a viability, T/C (second compound 0.316 µM, first compound 0.00949 µM) of 68.9%, a viability, T/C (second compound 0.316 µM, first compound 0.03 µM) of 55.2% and a viability, T/C (second compound 0.316 µM, first compound 0.0949 µM) of 33.8%. For the same compound, the viability, T/C (second compound 0.316 µM, first compound 0.3 µM) was 15%, the viability, T/C (second compound 0.316 µM, first compound 0.949 µM) was 13.4% and the viability, T/C (second compound 0.316 µM, first compound 3 µM) was 13.8%. For the same compound, the viability, T/C (second compound 1 µM, first compound 0.00949 µM) was 53.7%, the viability, T/C (second compound 1 µM, first compound 0.03 µM) was 40.1% and the viability, T/C (second compound 1 µM, first compound 0.0949 µM) was 19.5%. For the same compound, the viability, T/C (second compound 1 µM, first compound 0.3 µM) was 8.6%, the viability, T/C (second compound 1 µM, first compound 0.949 µM) was 8.98% and the viability, T/C (second compound 1 µM, first compound 3 µM) was 8.12%. For the same compound, the viability, T/C (second compound 3.16 µM, first compound 0.00949 µM) was 47.8%, the viability, T/C (second compound 3.16 µM, first compound 0.03 µM) was 35.6% and the viability, T/C (second compound 3.16 µM, first compound 0.0949 µM) was 15.5%. For the same compound, the viability, T/C (second compound 3.16 µM, first compound 0.3 µM) was 7.76%, the viability, T/C (second compound 3.16 µM, first compound 0.949 µM) was 6.08% and the viability, T/C (second compound 3.16 µM, first compound 3 µM) was 5.36%. For the same compound, the viability, T/C (second compound 10 µM, first compound 0.00949 µM) was 44.5%, the viability, T/C (second compound 10 µM, first compound 0.03 µM) was 33.8% and the viability, T/C (second compound 10 µM, first compound 0.0949 µM) was 12.8%. It also gave a viability, T/C (second compound 10 µM, first compound 0.3 µM) of 8.08%, a viability, T/C (second compound 10 µM, first compound 0.949 µM) of 5.49% and a viability, T/C (second compound 10 µM, first compound 3 µM) of 4.93%.

O=c1[nH]cc(F)c(=O)[nH]1 was tested, and the viability, T/C (compound 0.0316 µM) was 99.2% and 101%, the viability, T/C (compound 0.1 µM) was 83.9% and 82.2% and the viability, T/C (compound 0.316 µM) was 83.3% and 88.9%. For the same compound, the viability, T/C (compound 1 µM) was 79.7% and 78.6%, the viability, T/C (compound 3.16 µM) was 77.9% and 85.8% and the viability, T/C (compound 10 µM) was 73.3% and 74.8%. The IC50 (curve of compound) was over 10000 nM.

CC1(C)CCC(CN2CCN(c3ccc(C(=O)NS(=O)(=O)c4ccc(NCC5CCOCC5)c([N+](=O)[O-])c4)c(Oc4cnc5[nH]ccc5c4)c3)CC2)=C(c2ccc(Cl)cc2)C1 + CN1CCN(c2cc(C(=O)Nc3cc4cc(-c5cnn(C)c5)ccc4cn3)ccn2)CC1 gave an IC50 [1] of 8460 nM, an IC50 [2] of 6780 nM and an IC50 [3] of 5350 nM. The IC50 [4] was under 31.6 nM, the IC50 [5] was under 31.6 nM and the IC50 [6] was under 31.6 nM. For the same compound, the viability, T/C (second compound 0.0316 µM, first compound 0.0316 µM) was 107%, the viability, T/C (second compound 0.0316 µM, first compound 0.1 µM) was 92.1% and the viability, T/C (second compound 0.0316 µM, first compound 0.316 µM) was 99.5%. For the same compound, the viability, T/C (second compound 0.0316 µM, first compound 1 µM) was 104%, the viability, T/C (second compound 0.0316 µM, first compound 3.16 µM) was 111% and the viability, T/C (second compound 0.0316 µM, first compound 10 µM) was 41%. For the same compound, the viability, T/C (second compound 0.1 µM, first compound 0.0316 µM) was 93.1%, the viability, T/C (second compound 0.1 µM, first compound 0.1 µM) was 92.7% and the viability, T/C (second compound 0.1 µM, first compound 0.316 µM) was 91.3%. It also gave a viability, T/C (second compound 0.1 µM, first compound 1 µM) of 102%, a viability, T/C (second compound 0.1 µM, first compound 3.16 µM) of 92.1% and a viability, T/C (second compound 0.1 µM, first compound 10 µM) of 28.4%. The viability, T/C (second compound 0.316 µM, first compound 0.0316 µM) was 72.2%, the viability, T/C (second compound 0.316 µM, first compound 0.1 µM) was 70.9% and the viability, T/C (second compound 0.316 µM, first compound 0.316 µM) was 74.3%. The viability, T/C (second compound 0.316 µM, first compound 1 µM) was 71.2%, the viability, T/C (second compound 0.316 µM, first compound 3.16 µM) was 80.5% and the viability, T/C (second compound 0.316 µM, first compound 10 µM) was 21.6%. For the same compound, the viability, T/C (second compound 1 µM, first compound 0.0316 µM) was 5.73%, the viability, T/C (second compound 1 µM, first compound 0.1 µM) was 6.71% and the viability, T/C (second compound 1 µM, first compound 0.316 µM) was 6.34%. The viability, T/C (second compound 1 µM, first compound 1 µM) was 6.11%, the viability, T/C (second compound 1 µM, first compound 3.16 µM) was 7.84% and the viability, T/C (second compound 1 µM, first compound 10 µM) was 4.96%. For the same compound, the viability, T/C (second compound 3.16 µM, first compound 0.0316 µM) was 3.72%, the viability, T/C (second compound 3.16 µM, first compound 0.1 µM) was 2.29% and the viability, T/C (second compound 3.16 µM, first compound 0.316 µM) was 1.42%. It also gave a viability, T/C (second compound 3.16 µM, first compound 1 µM) of 3.37%, a viability, T/C (second compound 3.16 µM, first compound 3.16 µM) of 1.39% and a viability, T/C (second compound 3.16 µM, first compound 10 µM) of 1.49%. For the same compound, the viability, T/C (second compound 10 µM, first compound 0.0316 µM) was 2.97%, the viability, T/C (second compound 10 µM, first compound 0.1 µM) was 0.51% and the viability, T/C (second compound 10 µM, first compound 0.316 µM) was 2.24%. It also gave a viability, T/C (second compound 10 µM, first compound 1 µM) of 0.81%, a viability, T/C (second compound 10 µM, first compound 3.16 µM) of 0.61% and a viability, T/C (second compound 10 µM, first compound 10 µM) of 0.62%.
